Test results from patent US11246818B2, “Peptides and compositions for use in cosmetics” (LIPOTRUE, S.L., priority 2017, dated 2022).
Residues, ends and D or L forms follow the SMILES beside them.

Legend:
[1] = test system: Primary human epidermal melanocytes; assay: Brightening activity: intracellular melanin content; assay type: cell-based; conditions: 7 days, kojic acid 10 and 50 μM
Method: Two concentrations of kojic acid were used as positive control.
Kojic acid was used as positive control.
Primary human epidermal melanocytes were incubated in 6-well plates for 4 days and then treated with the compounds to be analysed (Ac-SEQ ID NO: 1-NH2, Ac-SEQ ID NO: 2-NH2, Ac-SEQ ID NO: 3-NH2 or Ferulic acid-SEQ ID NO: 2-NH2) for 7 days. After treatment, cells were homogenized an intracellular melanin content was quantified by absorbance at 450 nm by Multiskan FC (Thermo Fisher Scientific, MA, USA).

[2] = test system: Primary human epidermal keratinocytes; assay: Protection against lipoxidation induced by synthetic smoke (intracellular MDA); assay type: cell-based; conditions: synthetic smoke 48 h
Method: (§1) Primary human epidermal keratinocytes were seeded in 96-well plates in standard culture medium and, 24 hours later, subjected to a simultaneous treatment with synthetic smoke containing selected compounds from the particle phase (for example, cadmium and nicotine) and vapour phase (for example, formaldehyde (hereinafter, FA) and ethyl carbamate) of tobacco smoke and the analysed compound (Ac-SEQ ID NO: 1-NH2) for 48 h.
In addition, after treatment, lipoxidation was analysed by means of the levels of intracellular MDA, which were measured by the reaction between MDA and N-methyl-2-phenylindole (hereinafter, NMPI) rendering a stable blue chromophore with an absorption peak at 586 nm.

[3] = Trolox Equivalent Antioxidant Capacity (TEAC), ABTS Decolorization Assay; assay type: biochemical
Method: As positive controls of the assay, ascorbic acid 2-glucoside (hereinafter, AA-2G) and magnesium ascorbyl phosphate (hereinafter, MAP) were tested.
TEAC assay was used in this case. Said assay measures the antioxidant capacity of a given substance, as compared to the standard, Trolox, an analogue of Vitamin E.
Antioxidant capacity was measured using the ABTS Decolorization Assay. In this assay, the pre-formed radical monocation of 2,2′-azinobis-(3-ethylbenzothiazoline-6-sulfonic acid) (ABTS*+) was generated by oxidation of ABTS with potassium persulfate and was reduced in the presence of antioxidants (Ac-SEQ ID NO: 1-NH2, Ac-SEQ ID NO: 2-NH2, Ac-SEQ ID NO: 3-NH2 or Ferulic acid-SEQ ID NO: 2-NH2). The ABTS.+ has a blue-green color, with maximum absorptions at 650, 734 and 820 nm. Antioxidants in the sample reduce ABTS.+ suppressing this color production to a degree that is proportional to their concentrations and antioxidant capacity. Quantification of absorbance was conducted at 734 nm using a Polarstar Omega equipment (BMG Labtech).

[4] = test system: Primary human epidermal keratinocytes; assay: Protection against oxidative stress (reactive oxygen species) induced by hydrogen peroxide; assay type: cell-based; conditions: all concentrations tested
Method: Columns from left to right in the x-axis of FIG. 4(A) correspond to: basal state (cells to which no treatment is applied), positive control, negative control of oxidation (sample treated with 1 mM ascorbic acid) and treatments with Ac-SEQ ID NO: 1-NH2 concentrations of 0.001 mg/ml, 0.005 mg/ml and 0.01 mg/ml, respectively. […] Columns from left to right in the x-axis of FIG. 3(B) correspond to: basal state (cells to which no treatment is applied), positive control, negative control (sample treated with 1 mM ascorbic acid) and treatments with Ac-SEQ ID NO: 2-NH2 concentrations of 0.001 mg/ml, 0.005 mg/ml, 0.01 mg/ml and 0.05 mg/ml, respectively.
Primary human epidermal keratinocytes were seeded in black 96 well-plates in the corresponding culture medium and, 48 hours later, treated with the different compounds analysed (Ac-SEQ ID NO: 1-NH2 or Ac-SEQ ID NO: 2-NH2) for 3 hours at 37° C. or with ascorbic acid as an antioxidant control. After incubation, cells were loaded with a fluorescence probe for 45 minutes and then H2O2 was added for 30 minutes.
Finally, fluorescence was determined at Excitation 485 nm/Emission 520 nm.

[5] = test system: Primary human epidermal keratinocytes; assay: Protection against DNA oxidation induced by synthetic smoke (8-OHdG, competitive ELISA); assay type: cell-based; conditions: synthetic smoke 48 h
Method: as §1
After treatment, cells were lysed and DNA oxidation on cell homogenates was analysed measuring levels of 8-OHdG by means of a competitive ELISA assay with absorbance at 450 nm.

AhR = AhR immunostaining on human skin explants exposed to pollutants; conditions: composition of Example 8 applied topically, versus pollutants without peptide
Method: (§2) The protection efficacy of peptide Ac-SEQ ID NO: 1-NH2 against pollution aggression on human living explants was assessed by observation of the general morphology, immunostaining of AhR and HO-1 (both are known markers of oxidative stress as they have been related to anti-oxidative response) (Esser C., Bargen I., Weighardt H., Haarmann-Stemmann T., Krutmann J., Functions of the aryl hydrocarbon receptor in the skin, Semin Immunopathol (2013) 35:677-691; Kohen R., Nyska A., Oxidation of Biological Systems: Oxidative Stress Phenomena, Antioxidants, Redox Reactions, and Methods for Their Quantification, Toxicologic Pathology (2002) vol 30, no 6, 620-650).
(§3) Briefly, human skin explants from a person were put in culture under controlled conditions. 21 skin explants of an average diameter of 11 mm (±1 mm) were prepared and kept in survival in BEM culture medium at 37° C. in a humid, 5% CO2 atmosphere. The explants were distributed in 5 batches: explant control (Time=0), control batch, explants treated with the above-mentioned peptide, explants treated with pollutant and explants treated with pollutant and with the above-mentioned peptide. A composition containing Ac-SEQ ID NO: 1-NH2 in accordance with Example 8 was prepared and it was topically applied on days 0, 1, 3 and 4. […] Finally, image analyses and quantification were performed using Cell^D software (Olympus, Tokyo, Japan).

HO-1 = HO-1 immunostaining on human skin explants
Method: as §2, §3

[6] = lower tested concentration (0.01 mg/ml)
[7] = other two tested concentrations (0.05, 0.1 mg/ml)

In the case of CC(=O)N[C@@H](CC(=O)O)C(=O)N[C@@H](Cc1ccc(O)cc1)C(=O)N[C@@H](CCCCN)C(=O)N[C@H](C(N)=O)C(C)C [Ac-SEQ ID NO: 1-NH2, Ac-Asp-Tyr-Lys-Val-NH2] (Ac-DYKV-NH2), the “brightening or whitening activity compared with kojic acid” value ([1]; all the concentrations tested (0.01, 0.05, 0.1 mg/ml)) is reported as “significantly higher brightening or whitening activity”, the “increased brightening activity relative to the activity of the two concentrations of kojic acid” value ([1]; all the concentrations tested) is reported as “two to more than four times” and the “lipoxidation (MDA)” value [2, 6] is reported as “slight decrease (non-statistically significant)”. The “lipoxidation (MDA)” value [2, 7] was “higher, statistically significant, effect”, the trolox equivalents ([3]; 0.01 mg/mL) was 15 µM and the trolox equivalents ([3]; 0.05 mg/mL) was 24 µM. For the same compound, the trolox equivalents ([3]; 0.1 mg/mL) was 94 µM, the “activity against hydrogen peroxide induced reactive oxygen species compared with Ac-SEQ ID NO: 2-NH2” value [4] was “increased activity in all concentrations tested” and the “protection of DNA oxidation” value ([5]; 0.1 mg/ml) was “almost complete inhibition of the effects of synthetic smoke”. The “DNA oxidation (8-OHdG)” value [5, 6] was “slight decrease (non-statistically significant)”, the “DNA oxidation (8-OHdG)” value [5, 7] was “higher, statistically significant, effect” and the “decrease in AhR (epidermal surface occupied)” value (AhR) was 16%. For the same compound, the “decrease in HO-1 (epidermal surface occupied)” value (HO-1; composition of Example 8 applied topically, exposed to pollutants, versus pollutants without peptide) was 23% and the “increase of levels of HO-1” value (HO-1; peptide in a final formulation, without exposure to pollutants, versus untreated and unexposed explants) was 69%.
